The values that follow come from patent US7425548B2, “Materials and methods for immune system stimulation” (Variety Chidren's Hospital, priority 2004, dated 2008).

In data set [1] the test system is human monocyte cell line THP-1. Put plainly: NO synthesis in monocyte cell line. In kind it is cell-based. The text has this:
NO levels are also reported to play an important role in the modulation of Th cell differentiation and polarization. Yamasaki et al. (Yamasaki, A. et al. Yonago Acta Medica, 1998, 44:7-15) and Taylor-Robinson et al. (Taylor-Robinson, A. W. et al. Eur. J. Immunol., 1994, 24:980-984) reported an inhibitory role of NO on Th1 cytokines while Bauer et al. (Bauer, H. et al., Immunol, 1997, 90:205-211) reported the same for Th1 as well as Th2 cytokines by NO from activated T cells. […] The enzyme iNOS produced a high output of NO from macrophages upon stimulation. […] The absence of iNOS induction by RR1 supports the conclusion that there is an insignificant increase in the production of NO. […] IFN-α, IFN-γ and TNF-α are known up-regulators of NO synthesis (Shin, J. Y. et al. Immunopharmcol. Immunotoxicol., 2002, 24:469-482; Hirazumi, A. and Furusawa, E. Phytother Res., 1999, 13:380-387).

A further data set has as its system iNOS. Put plainly: iNOS induction immunoassay. In kind it is cell-based, human. Particulars: cytoplasmic extract of cells treated with RR1. How it is done:
Inducible Nitric Oxide Synthase (iNOS) induction and Nitric oxide (NO) synthesis. Higher and long lasting release of NO is caused by the enzyme iNOS upon stimulation with […]. The iNOS induction by RR1 stimulation was assayed by QUANTIKINE iNOS immunoassay kit (R&D systems, Minneapolis, Minn.) which employs a sandwich enzyme immunoassay technique. The iNOS was assayed from the cytoplasmic extract of the cells treated with different concentrations of RR1. The samples and standards were pipetted in to the wells of the 96-well plate and any iNOS present was bound to the immobilized antibody. After washing away the unbound substances, an enzyme linked monoclonal antibody specific for iNOS was added. After washing away the unbound antibody enzyme reagent, the color developing substrate solution was added, the color development was stopped by stop solution and the absorbance was read at 450 nm with a reference wave length of 570 nm in the Bio-Rad plate reader.

The test system of data set [2] is HEK293 cells transfected with TLR2/6. Nature of the data set: TLR signaling, IL-8 ELISA. Type of data set: cell-based, human. Particulars: HEK/TLR2/6, RR1 0-100 μg/ml, 24 hours. How it is done:
HEK293/TLR2/TLR6 cells (1×10^6) were treated with RR1 (0, 10, 50 and 100 μg/ml) at 37° C. for 24 hours and secreted IL-8 in the medium was analyzed by ELISA protocol.
TLR signaling. To determine the involvement of TLR signaling, parental HEK293 as well as HEK293 cells transfected with human TLR2, TLR6, TLR2/6 or TLR4/CD14/MD2 genes (cloned into pDUO plasmid), were used. These cells (0.5×10^6/ml) were incubated with 0-100 μg/ml of RR1 for 24 hours. Since these cells produce very low level of TNF-α and detectable levels of IL-8 upon activation, IL-8 secreted into the medium was analyzed using ELISA procedure. Incidentally, the IL-8 synthesis is also under the control of the transcription factor NF-κB.

Another data set concerns normal lymphocytes. Put plainly: Oxidative stress (GSH/GSSG levels). Particulars: data not shown. In kind it is cell-based, human.
The subject of data set [3] is TLR2, TLR4 and TLR6 mRNAs in RAW264.7 cells. Put plainly: TLR mRNA levels, RT-PCR. In kind it is cell-based, mouse. The following applies: 0-1000 μg/m RR1, 24 hours. How it is done:
The cells (1×10^6) were treated with RR1 (0, 10, 100, 500 and 1000 μg/ml) at 37° C. for 24 hours in a CO2 incubator and mRNA amplified with mouse TLR specific primers.
TLR mRNA and protein levels. TLR2, 4 and 6 mRNA levels were analyzed by RT-PCR using total RNAs extracted from RR1 treated cells. Total RNA was extracted from RR1-treated and untreated RAW 264.7 cells and 0.5 μg/ml RNA was reverse transcribed and amplified using mouse TLR2, 4 and 6 specific PCR primers (R&D SYSTEMS, Minneapolis, Minn.). Mouse GAPDH gene was also amplified as a control. The PCR products were separated on agarose gel.

On to (1,4)-α-D-glucan [RR1], for which the “NO levels with RR1 treatment” value in data set [1] is listed as “did not induce any higher levels of NO”. In addition, the “induction of iNOS” value in the data set with iNOS is reported as “did not stimulate the induction of iNOS significantly”. In addition, the IL-8 production entry in data set [2] is “copious induction of IL-8”. Moreover, the “amount of hydrogen peroxide” value with normal lymphocytes was “No significant elevation”. Moreover, the “mRNA levels of TLR2, 4 and 6” value in data set [3] was “remained similar”.
